Patent US9670227B2, “Thienopyrimidine derivatives, a process for their preparation and pharmaceutical compositions containing them” (LES LABORATOIRES SERVIER, priority 2013, dated 2017)

These molecules were tested against Mcl-1 protein (UniProtKB primary accession number: Q07820) (Homo sapiens, UniProt Q07820) (assay: Inhibition of Mcl-1 by fluorescence polarisation, Method 1). Details: fluorescence polarisation test; Method 1, or Method 2 where the value is underlined (underlining not visible); read-out: IC50 (M) Mcl-1 FP.
Chain of Mcl-1 protein (Q07820 whole entry): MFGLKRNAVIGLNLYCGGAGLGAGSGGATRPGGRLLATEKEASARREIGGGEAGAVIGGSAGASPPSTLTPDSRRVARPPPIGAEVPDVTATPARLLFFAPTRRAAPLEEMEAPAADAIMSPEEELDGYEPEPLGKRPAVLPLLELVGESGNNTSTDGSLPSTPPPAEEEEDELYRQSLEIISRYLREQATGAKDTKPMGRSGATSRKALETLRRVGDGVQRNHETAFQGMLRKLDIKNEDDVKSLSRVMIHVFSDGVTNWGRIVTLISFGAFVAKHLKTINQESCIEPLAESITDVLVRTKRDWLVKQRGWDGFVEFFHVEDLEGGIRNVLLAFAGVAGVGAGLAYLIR
Assay type: binding
Procedure, shortened: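 Compounds were tested as 11-point serial dilutions at 5% final DMSO against 5 nM Mcl-1 with 1 nM fluorescein-labelled ligand in 10 mM HEPES, 150 mM NaCl, 0.05% Tween 20, pH 7.4. Relative binding potency was read by fluorescence polarisation.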

Structure (SMILES)	IC50 [M]
CCOC(=O)C(Cc1ccccc1OCc1ccnc(-c2ccccc2O)n1)Oc1ncnc2sc(-c3ccc(F)cc3)c(-c3ccc(OCCN4CCN(C)CC4)c(Cl)c3C)c12 [Example 793, ethyl (2R)-2-{[(5Sa)-5-{3-chloro-2-methyl-4-[2-(4-methylpiperazin-1-yl)ethoxy]phenyl}-6-(4-fluorophenyl)thieno[2,3-d]pyrimidin-4-yl]oxy}-3-(2-{[2-(2-hydroxyphenyl)pyrimidin-4-yl]methoxy}phenyl)propanoate]	5.37e-06
CCOC(=O)C(Cc1ccccc1OCc1ccnc(-c2ccccc2OC)n1)Oc1ncnc2sc(-c3ccc(F)cc3)c(-c3ccc(OCCN4CCNCC4)c(Cl)c3C)c12 [Example 795, ethyl (2R)-2-{[(5Sa)-5-{3-chloro-2-methyl-4-[2-(piperazin-1-yl)ethoxy]phenyl}-6-(4-fluorophenyl)thieno[2,3-d]pyrimidin-4-yl]oxy}-3-(2-{[2-(2-methoxyphenyl)pyrimidin-4-yl]methoxy}phenyl)propanoate]	8.5e-07
CCOC(=O)C(Cc1ccccc1OCc1ccnc(-c2ccccc2OCCOC)n1)Oc1ncnc2sc(-c3ccc(F)cc3)c(-c3ccc(OCCN4CCN(C)CC4)c(Cl)c3C)c12 [Example 796, ethyl (2R)-2-{[(5Sa)-5-{3-chloro-2-methyl-4-[2-(4-methylpiperazin-1-yl)ethoxy]phenyl}-6-(4-fluorophenyl)thieno[2,3-d]pyrimidin-4-yl]oxy}-3-[2-({2-[2-(2-methoxyethoxy)phenyl]pyrimidin-4-yl}methoxy)phenyl]propanoate]	5.16e-07

Same assay, conditions: fluorescence polarisation; Method 1, or Method 2; read-out: IC50 (M) Mcl-1 FP

Structure (SMILES)	IC50 [M]
COc1cnc(C)cc1-c1nccc(COc2ccccc2CC(Oc2ncnc3sc(-c4ccc(F)cc4)c(-c4ccc(OCCN5CCN(C)CC5)c(Cl)c4C)c23)C(=O)O)n1 [Example 734, (2R)-2-{[(5Sa)-5-{3-chloro-2-methyl-4-[2-(4-methylpiperazin-1-yl)ethoxy]phenyl}-6-(4-fluorophenyl)thieno[2,3-d]pyrimidin-4-yl]oxy}-3-(2-{[2-(5-methoxy-2-methylpyridin-4-yl)pyrimidin-4-yl]methoxy}phenyl)propanoic acid]	9.48e-10
Cc1c(-c2c(-c3ccc(F)cc3)sc3ncnc(OC(Cc4ccccc4OCc4ccnn4Cc4ccncc4)C(=O)O)c23)ccc(OCCN2CCN(C)CC2)c1Cl [Example 736, (2R)-2-{[(5Sa)-5-{3-chloro-2-methyl-4-[2-(4-methylpiperazin-1-yl)ethoxy]phenyl}-6-(4-fluorophenyl)thieno[2,3-d]pyrimidin-4-yl]oxy}-3-(2-{[1-(pyridin-4-ylmethyl)-1H-pyrazol-5-yl]methoxy}phenyl)propanoic acid]	2.58e-09
COc1ccccc1-n1ccc(COc2ccccc2CC(Oc2ncnc3sc(-c4ccc(F)cc4)c(-c4ccc(OCCN5CCN(C)CC5)c(Cl)c4C)c23)C(=O)O)n1 [Example 737, (2R)-2-{[(5Sa)-5-{3-chloro-2-methyl-4-[2-(4-methylpiperazin-1-yl)ethoxy]phenyl}-6-(4-fluorophenyl)thieno[2,3-d]pyrimidin-4-yl]oxy}-3-(2-{[1-(2-methoxyphenyl)-1H-pyrazol-3-yl]methoxy}phenyl)propanoic acid]	1.43e-08
COc1ccccc1Cn1ccc(COc2ccccc2CC(Oc2ncnc3sc(-c4ccc(F)cc4)c(-c4ccc(OCCN5CCN(C)CC5)c(Cl)c4C)c23)C(=O)O)n1 [Example 740, (2R)-2-{[(5Sa)-5-{3-chloro-2-methyl-4-[2-(4-methylpiperazin-1-yl)ethoxy]phenyl}-6-(4-fluorophenyl)thieno[2,3-d]pyrimidin-4-yl]oxy}-3-(2-{[1-(2-methoxybenzyl)-1H-pyrazol-3-yl]methoxy}phenyl)propanoic acid]	5.04e-09
Cc1c(-c2c(-c3ccc(F)cc3)sc3ncnc(OC(Cc4ccccc4OCc4ccnc(-c5ccccc5F)n4)C(=O)O)c23)ccc(OCCN(C)C2CC2)c1Cl [Example 748, (2R)-2-{[(5Sa)-5-(3-chloro-4-{2-[cyclopropyl(methyl)amino]ethoxy}-2-methylphenyl)-6-(4-fluorophenyl)thieno[2,3-d]pyrimidin-4-yl]oxy}-3-(2-{[2-(2-fluorophenyl)pyrimidin-4-yl]methoxy}phenyl)propanoic acid]	1.21e-08
Cc1c(-c2c(-c3ccc(F)cc3)sc3ncnc(O[C@H](Cc4ccccc4OCc4ccnc(-c5ccccc5O)n4)C(=O)O)c23)ccc(OCCN2CCNCC2)c1Cl [Example 749, (2R)-2-{[(5Sa)-5-{3-chloro-2-methyl-4-[2-(piperazin-1-yl)ethoxy]phenyl}-6-(4-fluorophenyl)thieno[2,3-d]pyrimidin-4-yl]oxy}-3-(2-{[2-(2-hydroxyphenyl)pyrimidin-4-yl]methoxy}phenyl)propanoic acid]	8.24e-09
Cc1c(-c2c(-c3ccc(OCc4ccn(C)n4)cc3)sc3ncnc(OC(Cc4ccccc4OCC(F)(F)F)C(=O)O)c23)ccc(OCCN2CCN(C)CC2)c1Cl [Example 780, (2R)-2-[((5Sa)-5-{3-chloro-2-methyl-4-[2-(4-methylpiperazin-1-yl)ethoxy]phenyl}-6-{4-[(1-methyl-1H-pyrazol-3-yl)methoxy]phenyl}thieno[2,3-d]pyrimidin-4-yl)oxy]-3-[2-(2,2,2-trifluoroethoxy)phenyl]propanoic acid]	7.26e-09
COc1ccccc1-c1nccc(COc2ccccc2CC(Oc2ncnc3sc(C#CCCN4CCOCC4)c(-c4ccc(OCCN5CCN(C)CC5)c(Cl)c4C)c23)C(=O)O)n1 [Example 785, (2R)-2-[((5Sa)-5-{3-chloro-2-methyl-4-[2-(4-methylpiperazin-1-yl)ethoxy]phenyl}-6-[4-(morpholin-4-yl)but-1-yn-1-yl]thieno[2,3-d]pyrimidin-4-yl)oxy]-3-(2-{[2-(2-methoxyphenyl)pyrimidin-4-yl]methoxy}phenyl)propanoic acid]	3.85e-09
COc1ccccc1-c1nccc(COc2ccccc2CC(Oc2ncnc3sc(C#CCN4CCOCC4)c(-c4ccc(OCCN5CCN(C)CC5)c(Cl)c4C)c23)C(=O)O)n1 [Example 786, (2R)-2-[((5Sa)-5-{3-chloro-2-methyl-4-[2-(4-methylpiperazin-1-yl)ethoxy]phenyl}-6-[3-(morpholin-4-yl)prop-1-yn-1-yl]thieno[2,3-d]pyrimidin-4-yl)oxy]-3-(2-{[2-(2-methoxyphenyl)pyrimidin-4-yl]methoxy}phenyl)propanoic acid]	4.95e-09
CCOC(=O)C(Cc1ccccc1OCc1ccnn1C(C)(C)C)Oc1ncnc2sc(-c3ccc(F)cc3)c(-c3ccc(OCCN4CCN(C)CC4)c(Cl)c3C)c12 [Example 791, ethyl (2R)-3-{2-[(1-tert-butyl-1H-pyrazol-5-yl)methoxy]phenyl}-2-{[(5Sa)-5-{3-chloro-2-methyl-4-[2-(4-methylpiperazin-1-yl)ethoxy]phenyl}-6-(4-fluorophenyl)thieno[2,3-d]pyrimidin-4-yl]oxy}propanoate]	2.26e-06
CC#Cc1sc2ncnc(OC(Cc3ccccc3OCc3ccnn3C(C)(C)C)C(=O)OCC)c2c1-c1ccc(OCCN2CCN(C)CC2)c(Cl)c1C [Example 792, ethyl (2R)-3-{2-[(1-tert-butyl-1H-pyrazol-5-yl)methoxy]phenyl}-2-{[(5Sa)-5-{3-chloro-2-methyl-4-[2-(4-methylpiperazin-1-yl)ethoxy]phenyl}-6-(prop-1-yn-1-yl)thieno[2,3-d]pyrimidin-4-yl]oxy}propanoate]	6.44e-06
